Columns and labels:
[1] = cited from earlier work
human recombinant CYP2D6 = biological target: T1, human recombinant CYP2D6 (Homo sapiens, UniProt P10635); assay: CYP2D6 inhibition, MAMC substrate; assay type: in vitro ADME
T1 construct: purchased BD Bioscience
Method: Protocol. […] The source of the enzyme was microsomes containing human recombinant CYP2D6 obtained from BD Bioscience. Conversion of MAMC to 7-hydroxy-4-(aminomethyl)coumarin was measured using a PerkinElmer Fusion with a 390 nm excitation filter and a 460 nm emission filter.

[2] = biological target: T2, cloned human NE transporter (hNET) (Homo sapiens, UniProt P23975); assay: NE transporter binding assay, [3H]nisoxetine; settings: membranes of CHO cells expressing hNET; read-out: NET Ki
T2 construct: expressed in transfected cells; host or cells: CHO cells
T2 sequence (P23975 whole entry): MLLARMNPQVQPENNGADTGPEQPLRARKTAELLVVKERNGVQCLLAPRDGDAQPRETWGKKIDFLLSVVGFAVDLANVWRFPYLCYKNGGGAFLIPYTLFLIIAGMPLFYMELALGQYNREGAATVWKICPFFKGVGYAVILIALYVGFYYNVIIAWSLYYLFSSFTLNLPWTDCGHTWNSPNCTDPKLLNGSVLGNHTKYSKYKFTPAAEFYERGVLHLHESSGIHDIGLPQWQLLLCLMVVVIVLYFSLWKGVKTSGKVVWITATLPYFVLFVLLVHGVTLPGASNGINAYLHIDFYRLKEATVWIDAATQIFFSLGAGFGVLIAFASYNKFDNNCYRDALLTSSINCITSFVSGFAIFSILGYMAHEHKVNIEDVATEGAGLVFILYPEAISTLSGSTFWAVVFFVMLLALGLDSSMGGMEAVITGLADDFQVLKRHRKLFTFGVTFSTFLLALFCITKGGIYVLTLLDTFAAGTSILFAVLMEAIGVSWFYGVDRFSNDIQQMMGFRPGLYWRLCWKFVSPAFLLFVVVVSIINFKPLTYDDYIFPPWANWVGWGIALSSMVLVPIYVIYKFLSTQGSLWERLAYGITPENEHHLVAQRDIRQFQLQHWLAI
Method: Protocols. For the NE transporter binding assay, [^3H]nisoxetine (1.0 nM) was incubated with various concentrations of test compounds for 2 hours at 4° C. with membranes prepared from Chinese hamster ovary cells (CHO) cells heterologously expressing the cloned human NE transporter (hNET). Bound radioactivity was determined by scintillation spectroscopy.

[3] = single doses of 10 to 500 mg; cited from earlier work
5HT2C receptor = biological target: T3, 5HT2C receptor (Homo sapiens, UniProt P28335); settings: published report; cited from earlier work
T3 sequence (P28335 33-458): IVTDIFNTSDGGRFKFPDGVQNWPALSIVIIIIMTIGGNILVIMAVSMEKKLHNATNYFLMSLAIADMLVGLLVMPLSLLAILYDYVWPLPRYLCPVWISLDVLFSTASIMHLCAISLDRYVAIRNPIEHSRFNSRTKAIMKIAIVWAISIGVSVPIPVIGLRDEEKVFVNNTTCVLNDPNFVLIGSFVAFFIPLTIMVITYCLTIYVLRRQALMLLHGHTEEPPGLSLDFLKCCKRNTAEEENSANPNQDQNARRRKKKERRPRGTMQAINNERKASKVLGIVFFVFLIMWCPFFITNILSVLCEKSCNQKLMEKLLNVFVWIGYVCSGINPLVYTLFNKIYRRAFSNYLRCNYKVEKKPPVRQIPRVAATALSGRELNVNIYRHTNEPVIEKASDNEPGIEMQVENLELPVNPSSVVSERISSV

[4] = biological target: T4, cloned human 5HT2A receptor (Homo sapiens, UniProt P28223); assay: 5HT2A functional assay, intracellular Ca2+ in HEK-293 cells; assay type: cell-based
T4 construct: expressed in transfected cells; host or cells: HEK-293 cells
T4 sequence (P28223 whole entry): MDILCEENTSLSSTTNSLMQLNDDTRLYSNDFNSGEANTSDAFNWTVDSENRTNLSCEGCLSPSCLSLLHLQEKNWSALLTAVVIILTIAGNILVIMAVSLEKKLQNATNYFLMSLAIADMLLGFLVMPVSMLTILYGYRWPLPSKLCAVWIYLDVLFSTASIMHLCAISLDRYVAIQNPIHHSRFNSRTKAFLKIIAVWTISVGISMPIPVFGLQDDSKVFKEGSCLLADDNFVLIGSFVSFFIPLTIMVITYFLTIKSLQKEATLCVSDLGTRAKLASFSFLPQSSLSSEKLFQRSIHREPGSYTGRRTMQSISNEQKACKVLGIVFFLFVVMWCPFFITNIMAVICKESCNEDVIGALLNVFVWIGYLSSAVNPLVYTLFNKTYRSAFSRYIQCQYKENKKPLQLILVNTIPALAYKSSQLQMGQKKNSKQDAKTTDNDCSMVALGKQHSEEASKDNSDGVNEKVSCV
Method: (§1) Agonist effects at the 5HT2A receptor were assessed by incubation at 22° C. of a series of concentrations of test compound with intact HEK-293 cells heterologously expressing the cloned human 5HT2A receptor and measuring intracellular [Ca^2+] by fluorimetry according to the method of Jerman et al., 2001, Eur. J. Pharmacol. 414:23-30). Antagonist effects were assessed by the ability of a series of concentrations of test compound to block the increase in intracellular [Ca^2+] that occurred in the presence of 3.0 nM serotonin under the same conditions. EC50 and IC50 values were determined using standard methods.

[5] = test system: noradrenaline reuptake in synaptosomes from rat and primate brain; settings: published reports; cited from earlier work
[6] = biological target: T5, cloned human 5HT2C receptor (Homo sapiens, UniProt P28335); assay: 5HT2C functional assay, intracellular Ca2+ in CHO cells; assay type: cell-based
T5 construct: expressed in transfected cells; host or cells: CHO cells
T5 sequence (P28335 33-458): T3 sequence (P28335 33-458)
Method: as §1, with “5HT2C” for “5HT2A”, “CHO” for “HEK-293”, “414:23-30.” for “414:23-30).”

[7] = biological target: T6, cloned human 5HT2B receptor (Homo sapiens, UniProt P41595); assay: 5HT2B functional assay, intracellular Ca2+ in CHO cells; assay type: cell-based
T6 construct: expressed in transfected cells; host or cells: CHO cells
T6 sequence (P41595 whole entry): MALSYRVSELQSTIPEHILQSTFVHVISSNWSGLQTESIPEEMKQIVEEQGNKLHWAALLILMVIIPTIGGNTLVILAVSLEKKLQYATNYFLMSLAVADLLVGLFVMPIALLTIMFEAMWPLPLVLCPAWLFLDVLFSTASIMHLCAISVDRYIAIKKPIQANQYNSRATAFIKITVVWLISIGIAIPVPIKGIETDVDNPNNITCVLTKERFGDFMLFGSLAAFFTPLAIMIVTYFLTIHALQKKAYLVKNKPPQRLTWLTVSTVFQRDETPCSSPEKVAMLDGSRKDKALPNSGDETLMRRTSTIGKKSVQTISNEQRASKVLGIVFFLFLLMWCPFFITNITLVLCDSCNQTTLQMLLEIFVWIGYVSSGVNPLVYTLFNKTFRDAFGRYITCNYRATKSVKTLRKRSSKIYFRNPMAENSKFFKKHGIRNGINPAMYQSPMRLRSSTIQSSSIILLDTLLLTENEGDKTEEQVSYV
Method: as §1, with “5HT2B” for “5HT2A”, “CHO” for “HEK-293”, “Porter” for “Jerman”, “1991, Brit.” for “2001, Eur.”, “128:13-20.” for “414:23-30).”, “0.3” for “3.0”

[8] = biological target: T4, cloned human 5HT2A receptor; assay: 5HT2A receptor binding assay, [3H]ketanserin; settings: HEK-293 membranes
Method: For the 5HT2A receptor binding assay, [^3H]ketanserin (0.5 nM) was incubated for 60 min at 22° C. with membranes prepared from HEK-293 cells heterologously expressing the cloned human 5-HT2A receptor according to the method of Bonhaus et al., 1995, Brit. J. Pharmacol. 115:622-628. Various concentrations of test compound were added and bound radioactivity was determined by scintillation counting. Non-specific binding was determined in the presence of 1.0 μM unlabeled ketanserin. The Ki value for the test compound was determined using standard methods.

[9] = biological target: T6, cloned human 5HT2B receptor; assay: 5HT2B receptor binding assay, [125I]DOI; settings: CHO membranes
Method: For the 5HT2B receptor binding assay, [^125I](±)[…] (DOI) (0.2 nM) was incubated for 15 min at 37° C. with membranes prepared from Chinese hamster ovary cells heterologously expressing the cloned human 5HT2B receptor according to the method of Choi et al., 1994, FEBS Lett 352:393-399. Various concentrations of test compound were added and bound radioactivity was determined by scintillation counting. Non-specific binding was determined in the presence of 1.0 μM unlabeled DOI. The Ki value for the test compound was determined using standard methods.

[10] = in vivo; cited from earlier work
[11] = biological target: T5, cloned human 5HT2C receptor; assay: 5HT2C receptor binding assay, [3H]mesulergine; settings: CHO membranes
Method: For the 5HT2C receptor binding assay, [^3H]mesulergine (1.0 nM) was incubated for 60 min at 37° C. with membranes prepared from Chinese hamster ovary cells heterologously expressing the cloned human 5-HT2C receptor according to the method of Stam et al., 1994, Eur. J. Pharmacol. 269:339-348. Various concentrations of test compound were added and bound radioactivity was determined by scintillation counting. Non-specific binding was determined in the presence of 10 μM RS102221. The Ki value for the test compound was determined using standard methods.

human volunteers = settings: 25-400 mg, cited from earlier work
[12] = test system: animal models of depression; settings: preclinical; cited from earlier work
[13] = test system: noradrenergic, histaminergic and cholinergic receptors; settings: published report; cited from earlier work
[14] = test system: patients hospitalized for depression; settings: phase IIA; cited from earlier work
major depression = settings: human, in vivo; cited from earlier work
[15] = antagonist mode, vs 3.0 nM serotonin

T1 sequence (P10635 whole entry): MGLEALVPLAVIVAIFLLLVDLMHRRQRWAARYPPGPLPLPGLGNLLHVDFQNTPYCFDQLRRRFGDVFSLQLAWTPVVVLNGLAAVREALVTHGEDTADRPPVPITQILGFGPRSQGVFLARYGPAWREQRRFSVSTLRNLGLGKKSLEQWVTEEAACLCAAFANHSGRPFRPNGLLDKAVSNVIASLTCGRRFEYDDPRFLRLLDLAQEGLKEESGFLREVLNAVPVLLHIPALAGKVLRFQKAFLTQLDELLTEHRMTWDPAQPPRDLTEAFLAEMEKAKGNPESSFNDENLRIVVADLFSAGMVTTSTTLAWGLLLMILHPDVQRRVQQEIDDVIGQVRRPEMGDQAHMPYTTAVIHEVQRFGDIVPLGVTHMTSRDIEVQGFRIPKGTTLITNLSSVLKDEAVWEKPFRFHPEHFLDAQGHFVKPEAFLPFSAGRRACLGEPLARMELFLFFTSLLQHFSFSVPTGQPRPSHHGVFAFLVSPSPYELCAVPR

Which results are given for `Cc1cccc2c1Oc1ccccc1C1(O)CCN(C)CC21` (racemic) [(±)-beloxepin, cis-1,2,3,4,4a,13b-hexahydro-2,10-dimethyldiben-[2,3:6,7]oxepino[4,5c]pyridine-4a-ol]]?
tmax, steady state ([1]; doses of 50 to 800 mg, healthy subjects): 1.17 h; adverse effects ([1]; healthy volunteers, up to 800 mg/day): No important adverse effects were observed; IC50 (human recombinant CYP2D6): 536 nM; Ki [2]: 700 nM; tmax [3]: one to four; affinity for the 5HT2C receptor (5HT2C receptor): modest affinity; 5HT2A functional activity type [4]: antagonist; IC50 [4, 15]: 5200 nM; less affinity for other monoamine carriers (serotonin and dopamine transporters) than for noradrenaline reuptake [5]: greater than 100 fold; 5HT2C functional activity type [6]: antagonist; IC50 [6, 15]: > 10000 nM; 5HT2B functional activity type [7]: antagonist; IC50 ([7]; antagonist mode, vs 0.3 nM serotonin): > 10000 nM; Ki [8]: 440 nM; Ki [9]: 1000 nM; logBB [10]: 0.82; Ki [11]: 830 nM; effect on REM sleep (human volunteers; acutely and sub-chronically): dose-dependently prolonged REM latency; side effects (human volunteers): No sedation or other side effects were observed; antidepressant properties [12]: offsetting acquired immobility behavior, reserpine-induced hypothermia, and conditioned avoidance behavior; side effects [12]: did not cause sedation, motor impairment or other untoward side effects; affinity for noradrenergic, histaminergic and cholinergic receptors [13]: no or very weak affinity; fraction of patients with a moderate to good response (HAMD score reduction) [14]: ⅔; efficacy in major depression (major depression): insufficient efficacy
